Laboratory results from ChEMBL document CHEMBL4043204, “meso-Dihydroguaiaretic acid derivatives with antibacterial and antimycobacterial activity” (Bioorg Med Chem, 2017).
In brackets after ≈: the same amount, converted by molar mass. Activity calls are given as the source filed them. The rule behind the calls is not given here.

Assays:
[1] = test system: Mycobacterium tuberculosis; experiment: Antimycobacterial activity against Mycobacterium tuberculosis H37Rv ATCC 27294 assessed as inhibition of mycobacterial growth incubated for 2 weeks by MABA method; format: functional; conditions: for MIC: Mycobacterium tuberculosis, H37Rv ATCC 27294, 336 h
Escherichia coli [2] = experiment: Antibacterial activity against oxacillin-resistant Escherichia coli OXA-48 assessed as inhibition of microbial growth up to 50 ug/ml incubated for 24 hrs by microdilution assay; format: functional
Pseudomonas aeruginosa = experiment: Antibacterial activity against carbapenem-resistant Pseudomonas aeruginosa (13-1391) assessed as inhibition of microbial growth up to 50 ug/ml incubated for 48 hrs by microdilution assay; format: functional
Vero = experiment: Cytotoxicity against African green monkey Vero cells assessed as reduction in cell viability incubated for 24 hrs by trypan blue staining based assay; conditions: Chlorocebus sabaeus
Providencia rettgeri = experiment: Antibacterial activity against NDM-1 positive Providencia rettgeri assessed as inhibition of microbial growth up to 50 ug/ml incubated for 24 hrs by microdilution assay; format: functional
[3] = test system: Staphylococcus haemolyticus; experiment: Antibacterial activity against linezolid-resistant Staphylococcus haemolyticus 2975 assessed as inhibition of microbial growth incubated for 24 hrs by microdilution assay; format: functional; conditions: Staphylococcus haemolyticus, 2975, 24 h
[4] = test system: Stenotrophomonas maltophilia; experiment: Antibacterial activity against trimethoprim-sulfamethoxazole-resistant Stenotrophomonas maltophilia assessed as inhibition of microbial growth up to 50 ug/ml incubated for 24 hrs by microdilution assay; format: functional
Acinetobacter baumannii = experiment: Antibacterial activity against carbapenem-resistant Acinetobacter baumannii (12-666) assessed as inhibition of microbial growth up to 50 ug/ml incubated for 24 hrs by microdilution assay; format: functional
Enterococcus faecium = experiment: Antibacterial activity against vancomycin-resistant Enterococcus faecium (10-984) assessed as inhibition of microbial growth incubated for 24 hrs by microdilution assay; format: functional
[5] = Selectivity index, ratio of IC50 for cytotoxicity against African green monkey Vero cells to MIC for Mycobacterium tuberculosis H37Rv ATCC 27294; format: toxicity, cell-based; conditions: read-out: Selectivity Index
[6] = Selectivity index, ratio of IC50 for cytotoxicity against African green monkey Vero cells to MIC for antibacterial activity against methicillin-resistant Staphylococcus aureus (14-2095)
Escherichia coli [7] = experiment: Antibacterial activity against extended-spectrum beta-lactamase-positive Escherichia coli (14-2081) assessed as inhibition of microbial growth up to 50 ug/ml incubated for 24 hrs by microdilution assay; format: functional
Klebsiella pneumoniae [8] = experiment: Antibacterial activity against extended-spectrum beta-lactamase-positive Klebsiella pneumoniae (14-2081) assessed as inhibition of microbial growth up to 50 ug/ml incubated for 24 hrs by microdilution assay; format: functional
Klebsiella pneumoniae [9] = experiment: Antibacterial activity against NDM-1 positive Klebsiella pneumoniae (14-3335) assessed as inhibition of microbial growth up to 50 ug/ml incubated for 24 hrs by microdilution assay; format: functional
Staphylococcus aureus [10] = experiment: Antibacterial activity against methicillin-resistant Staphylococcus aureus (14-2095) assessed as inhibition of microbial growth incubated for 24 hrs by microdilution assay; format: functional
[11] = test system: Staphylococcus epidermidis; experiment: Antibacterial activity against linezolid-resistant Staphylococcus epidermidis (14-583) assessed as inhibition of microbial growth incubated for 24 hrs by microdilution assay; format: functional
Jonesia denitrificans = experiment: Antibacterial activity against Listeria denitrificans; format: functional
Bacillus subtilis = experiment: Antibacterial activity against Bacillus subtilis; format: functional
Salmonella enterica = experiment: Antibacterial activity against Salmonella choleraesuis; format: functional
Staphylococcus aureus [12] = experiment: Antibacterial activity against methicillin-resistant Staphylococcus aureus; format: functional
Staphylococcus aureus [13] = experiment: Antibacterial activity against Staphylococcus aureus; format: functional

Structure (SMILES): COc1cc(C[C@@H](C)[C@@H](C)Cc2ccc(OC(=O)c3ccccn3)c(OC)c2)ccc1O (racemic)
- -logMIC [1]: 3.87
- MIC [1]: 50 µg/mL (≈ 115 µM)
- Activity (Escherichia coli [2]): inactive
- Activity (Pseudomonas aeruginosa): inactive
- IC50 (Vero): 65 µg/mL (≈ 149 µM)
- Activity (Providencia rettgeri): inactive
- MIC [3]: > 50 µg/mL
- Activity [4]: inactive
- Activity (Acinetobacter baumannii): inactive
- MIC (Enterococcus faecium): > 50 µg/mL
- selectivity ratio [5]: 1.3
- Selectivity Index [6]: 2.6
- Activity (Escherichia coli [7]): inactive
- Activity (Klebsiella pneumoniae [8]): inactive
- Activity (Klebsiella pneumoniae [9]): inactive
- MIC (Staphylococcus aureus [10]): 25 µg/mL
- MIC [11]: > 50 µg/mL

Structure (SMILES): COc1cc(C[C@@H](C)[C@H](C)Cc2ccc(O)c(OC)c2)ccc1O [(-)-DIHYDROGUAIARETICACID]
- MIC (Jonesia denitrificans): 400 µM (≈ 132 µg/mL)
- MIC (Bacillus subtilis): 1600 µM (≈ 529 µg/mL)

Structure (SMILES): COc1cc(C[C@@H](C)[C@@H](C)Cc2ccc(OCCN3CCCCC3)c(OC)c2)ccc1OCCN1CCCCC1
- MIC [1]: 3.12 µg/mL (≈ 5.65 µM)
- Activity (Escherichia coli [2]): inactive
- Activity (Pseudomonas aeruginosa): inactive
- IC50 (Vero): 73.2 µg/mL (≈ 132 µM)
- Activity (Providencia rettgeri): inactive
- MIC [3]: 50 µg/mL
- Activity [4]: inactive
- Activity (Acinetobacter baumannii): inactive
- MIC (Enterococcus faecium): 50 µg/mL
- selectivity ratio [5]: 23.4
- Selectivity Index [6]: 1.46
- Activity (Escherichia coli [7]): inactive
- Activity (Klebsiella pneumoniae [8]): inactive
- Activity (Klebsiella pneumoniae [9]): inactive
- MIC (Staphylococcus aureus [10]): 50 µg/mL
- MIC [11]: > 50 µg/mL

Structure (SMILES): COc1cc(C[C@@H](C)[C@@H](C)Cc2ccc(OCCN3CCOCC3)c(OC)c2)ccc1OCCN1CCOCC1
- MIC [1]: 25 µg/mL (≈ 44.9 µM)
- Activity (Escherichia coli [2]): inactive
- Activity (Pseudomonas aeruginosa): inactive
- IC50 (Vero): 71.6 µg/mL (≈ 129 µM)
- Activity (Providencia rettgeri): inactive
- MIC [3]: > 50 µg/mL
- Activity [4]: inactive
- Activity (Acinetobacter baumannii): inactive
- MIC (Enterococcus faecium): > 50 µg/mL
- selectivity ratio [5]: 2.87
- Selectivity Index [6]: 1.43
- Activity (Escherichia coli [7]): inactive
- Activity (Klebsiella pneumoniae [8]): inactive
- Activity (Klebsiella pneumoniae [9]): inactive
- MIC (Staphylococcus aureus [10]): 50 µg/mL
- MIC [11]: > 50 µg/mL

Structure (SMILES): COc1cc(C[C@H](C)[C@@H](C)Cc2ccc(O)c(OC)c2)ccc1O
- MIC (Jonesia denitrificans): 400 µM (≈ 132 µg/mL)
- MIC (Bacillus subtilis): 1600 µM (≈ 529 µg/mL)
- MIC (Salmonella enterica): 3100 µM (≈ 1020 µg/mL)

Structure (SMILES): COc1cc(C[C@@H](C)[C@@H](C)Cc2ccc(OCCN3CCCCC3)c(OC)c2)ccc1O (racemic)
- MIC [1]: 12.5 µg/mL (≈ 28.3 µM)
- Activity (Escherichia coli [2]): inactive
- Activity (Pseudomonas aeruginosa): inactive
- IC50 (Vero): 62.6 µg/mL (≈ 142 µM)
- Activity (Providencia rettgeri): inactive
- MIC [3]: 50 µg/mL
- Activity [4]: inactive
- Activity (Acinetobacter baumannii): inactive
- MIC (Enterococcus faecium): 50 µg/mL
- selectivity ratio [5]: 5.01
- Selectivity Index [6]: 1.25
- Activity (Escherichia coli [7]): inactive
- Activity (Klebsiella pneumoniae [8]): inactive
- Activity (Klebsiella pneumoniae [9]): inactive
- MIC (Staphylococcus aureus [10]): 50 µg/mL
- MIC [11]: 50 µg/mL

Structure (SMILES): COc1cc(C[C@@H](C)[C@@H](C)Cc2ccc(OC(=O)c3cnccn3)c(OC)c2)ccc1O (racemic)
- -logMIC [1]: 4.07
- MIC [1]: 50 µg/mL (≈ 115 µM)
- Activity (Escherichia coli [2]): inactive
- Activity (Pseudomonas aeruginosa): inactive
- IC50 (Vero): 43.3 µg/mL (≈ 99.3 µM)
- Activity (Providencia rettgeri): inactive
- MIC [3]: > 50 µg/mL
- Activity [4]: inactive
- Activity (Acinetobacter baumannii): inactive
- MIC (Enterococcus faecium): > 50 µg/mL
- selectivity ratio [5]: 0.86
- Selectivity Index [6]: 0.87
- Activity (Escherichia coli [7]): inactive
- Activity (Klebsiella pneumoniae [8]): inactive
- Activity (Klebsiella pneumoniae [9]): inactive
- MIC (Staphylococcus aureus [10]): 50 µg/mL
- MIC [11]: > 50 µg/mL

Structure (SMILES): COc1cc(C[C@@H](C)[C@@H](C)Cc2ccc(OC)c(OC)c2)ccc1O (racemic)
- -logMIC [1]: 3.94
- MIC [1]: 50 µg/mL (≈ 145 µM)
- Activity (Escherichia coli [2]): inactive
- Activity (Pseudomonas aeruginosa): inactive
- IC50 (Vero): 47.8 µg/mL (≈ 139 µM)
- Activity (Providencia rettgeri): inactive
- MIC [3]: > 50 µg/mL
- Activity [4]: inactive
- Activity (Acinetobacter baumannii): inactive
- MIC (Enterococcus faecium): > 50 µg/mL
- selectivity ratio [5]: 0.96
- Selectivity Index [6]: 1.91
- Activity (Escherichia coli [7]): inactive
- Activity (Klebsiella pneumoniae [8]): inactive
- Activity (Klebsiella pneumoniae [9]): inactive
- MIC (Staphylococcus aureus [10]): 25 µg/mL
- MIC [11]: > 50 µg/mL

Structure (SMILES): COc1cc(C[C@@H](C)[C@@H](C)Cc2ccc(O)c(OC)c2)ccc1O [MESODIHYDROGUAIARETIC ACID]
- MIC [1]: 50 µg/mL (≈ 151 µM)
- MIC (Staphylococcus aureus [12]): 50 µg/mL (≈ 151 µM)
- MIC (Staphylococcus aureus [13]): 1600 µM (≈ 529 µg/mL)
- MIC (Jonesia denitrificans): 1600 µM (≈ 529 µg/mL)
- MIC (Bacillus subtilis): 1600 µM (≈ 529 µg/mL)

Structure (SMILES): COc1cc(C[C@@H](C)[C@@H](C)Cc2ccc(OC(C)=O)c(OC)c2)ccc1O (racemic)
- -logMIC [1]: 4.07
- MIC [1]: 50 µg/mL (≈ 134 µM)
- Activity (Escherichia coli [2]): inactive
- Activity (Pseudomonas aeruginosa): inactive
- IC50 (Vero): 112 µg/mL (≈ 300 µM)
- Activity (Providencia rettgeri): inactive
- MIC [3]: > 50 µg/mL
- Activity [4]: inactive
- Activity (Acinetobacter baumannii): inactive
- MIC (Enterococcus faecium): > 50 µg/mL
- selectivity ratio [5]: 2.23
- Selectivity Index [6]: 4.46
- Activity (Escherichia coli [7]): inactive
- Activity (Klebsiella pneumoniae [8]): inactive
- Activity (Klebsiella pneumoniae [9]): inactive
- MIC (Staphylococcus aureus [10]): 25 µg/mL
- MIC [11]: > 50 µg/mL
